Data taken from ChEMBL document CHEMBL3352660, “Design, synthesis and pharmacological evaluation of novel polycyclic heteroarene ethers as PDE10A inhibitors: part II” (Bioorg Med Chem Lett, 2014).

How the values were obtained:
[1] = target: T1, cAMP and cAMP-inhibited cGMP 3',5'-cyclic phosphodiesterase 10A (Homo sapiens, UniProt Q9Y233); test: Inhibition of human recombinant GST-tagged PDE10A using [3H]-cAMP as substrate at 1 uM after 30 mins by scintillation proximity assay
[2] = target: T1, cAMP and cAMP-inhibited cGMP 3',5'-cyclic phosphodiesterase 10A; test: Inhibition of human recombinant GST-tagged PDE10A using [3H]-cAMP as substrate after 30 mins by scintillation proximity assay
[3] = target: T2, cAMP and cAMP-inhibited cGMP 3',5'-cyclic phosphodiesterase 10A (Rattus norvegicus, UniProt Q9QYJ6); test: Inhibition of rat recombinant GST-tagged PDE10A using [3H]-cAMP as substrate by scintillation proximity assay
T2 sequence (Q9QYJ6 whole entry): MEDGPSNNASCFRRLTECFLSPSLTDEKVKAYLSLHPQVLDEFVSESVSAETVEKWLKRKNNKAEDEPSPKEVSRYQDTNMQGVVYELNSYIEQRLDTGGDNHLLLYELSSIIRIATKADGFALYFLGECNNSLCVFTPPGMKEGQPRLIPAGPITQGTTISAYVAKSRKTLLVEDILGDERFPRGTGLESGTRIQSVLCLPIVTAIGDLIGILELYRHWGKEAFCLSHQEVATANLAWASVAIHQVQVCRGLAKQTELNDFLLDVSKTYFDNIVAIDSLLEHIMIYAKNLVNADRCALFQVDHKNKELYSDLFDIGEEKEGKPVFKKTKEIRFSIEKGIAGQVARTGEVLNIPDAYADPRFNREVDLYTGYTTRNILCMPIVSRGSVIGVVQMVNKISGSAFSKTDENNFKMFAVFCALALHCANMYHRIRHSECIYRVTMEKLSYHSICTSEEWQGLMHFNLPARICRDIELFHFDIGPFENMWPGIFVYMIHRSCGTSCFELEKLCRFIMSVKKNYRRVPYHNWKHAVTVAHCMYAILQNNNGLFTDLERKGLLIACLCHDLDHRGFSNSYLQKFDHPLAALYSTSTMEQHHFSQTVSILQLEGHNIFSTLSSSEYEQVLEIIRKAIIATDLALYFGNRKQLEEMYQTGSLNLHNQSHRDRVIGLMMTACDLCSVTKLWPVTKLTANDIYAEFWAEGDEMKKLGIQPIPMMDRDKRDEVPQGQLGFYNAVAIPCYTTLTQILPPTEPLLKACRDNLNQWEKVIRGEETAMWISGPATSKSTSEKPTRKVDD

[4] = target: cGMP-dependent 3',5'-cyclic phosphodiesterase (Homo sapiens) (UniProt O00408); test: Inhibition of human recombinant PDE2A using cAMP as substrate at 10 uM after 30 mins by HTRF method
[5] = target: cGMP-inhibited 3',5'-cyclic phosphodiesterase 3A (Homo sapiens) (UniProt Q14432); test: Inhibition of human recombinant PDE3A using cAMP as substrate at 1 uM after 30 mins by HTRF method
[6] = target: 3',5'-cyclic-AMP phosphodiesterase 4D (Homo sapiens) (UniProt Q08499); test: Inhibition of human recombinant PDE4D using [3H]-cAMP as substrate at 10 uM after 30 mins by two-step radiometric assay
[7] = target: High affinity 3',5'-cyclic-AMP phosphodiesterase 7A (Homo sapiens) (UniProt Q13946); test: Inhibition of human recombinant PDE7A using [3H]-cAMP as substrate at 1 uM after 30 mins by two-step radiometric assay
[8] = target: Dual 3',5'-cyclic-AMP and -GMP phosphodiesterase 11A (Homo sapiens) (UniProt Q9HCR9); test: Inhibition of human recombinant PDE11A using [3H]-cAMP as substrate at 1 uM after 30 mins by two-step radiometric assay
[9] = Metabolic stability in Beagle dog liver microsomes incubated for 10 mins prior to NADPH addition measured after 60 mins by LC/MS/MS analysis; format: ADME, Canis lupus familiaris; conditions: read-out: Stability
[10] = Metabolic stability in cynomolgus monkey liver microsomes incubated for 10 mins prior to NADPH addition measured after 60 mins by LC/MS/MS analysis; format: ADME, Macaca fascicularis; conditions: read-out: Stability
[11] = Cmax in Swiss albino mouse at 10 mg/kg, po; format: ADME, organism-based; set-up: dose 10 mg/kg, route oral; conditions: in vivo
[12] = Tmax in Swiss albino mouse at 10 mg/kg, po; format: ADME, organism-based; set-up: dose 10 mg/kg, route oral; conditions: in vivo
[13] = Cmax in Sprague-Dawley rat at 10 mg/kg, po; format: ADME, organism-based; set-up: dose 10 mg/kg, route oral; conditions: in vivo
[14] = Tmax in Sprague-Dawley rat at 10 mg/kg, po; format: ADME, organism-based; set-up: dose 10 mg/kg, route oral; conditions: in vivo
[15] = AUC (0 to t) in Sprague-Dawley rat at 10 mg/kg, po; format: ADME, organism-based; set-up: dose 10 mg/kg, route oral; conditions: plasma
[16] = Half life in Sprague-Dawley rat at 10 mg/kg, po; format: ADME, organism-based; set-up: dose 10 mg/kg, route oral; conditions: in vivo
[17] = Plasma clearance in iv dosed Swiss albino mouse; format: ADME, organism-based
[18] = system: Rattus norvegicus; test: Antipsychotic activity in Sprague-Dawley rat psychosis model assessed as reversal of MK-801-induced locomotion at 1 mg/kg, po administered 2 hrs prior to MK-801 challenge measured every 5 mins for 1 hr starting 15 mins post MK-801 injection relative to vehicle-treated control; format: functional
[19] = system: Rattus norvegicus; test: Antipsychotic activity in Sprague-Dawley rat psychosis model assessed as reversal of MK-801-induced locomotion at 3 mg/kg, po administered 2 hrs prior to MK-801 challenge measured every 5 mins for 1 hr starting 15 mins post MK-801 injection relative to vehicle-treated control; format: functional
[20] = system: Rattus norvegicus; test: Antipsychotic activity in Sprague-Dawley rat psychosis model assessed as reversal of MK-801-induced stereotypy at 3 mg/kg, po administered 2 hrs prior to MK-801 challenge measured every 5 mins for 1 hr starting 15 mins post MK-801 injection relative to vehicle-treated control; format: functional
[21] = system: Rattus norvegicus; test: Antipsychotic activity in Sprague-Dawley rat psychosis model assessed as reversal of MK-801-induced stereotypy at 10 mg/kg, po administered 2 hrs prior to MK-801 challenge measured every 5 mins for 1 hr starting 15 mins post MK-801 injection relative to vehicle-treated control; format: functional
[22] = system: Rattus norvegicus; test: Antipsychotic activity in Sprague-Dawley rat psychosis model assessed as reversal of MK-801-induced ataxia at 10 mg/kg, po administered 2 hrs prior to MK-801 challenge measured every 5 mins for 1 hr starting 15 mins post MK-801 injection relative to vehicle-treated control; format: functional
[23] = system: Rattus norvegicus; test: Antipsychotic activity in Sprague-Dawley rat conditioned avoidance response model assessed as avoidance of shock at 1 mg/kg, po measured after 2 hrs relative to vehicle-treated control; format: functional
[24] = system: Rattus norvegicus; test: Antipsychotic activity in Sprague-Dawley rat conditioned avoidance response model assessed as avoidance of shock at 2.5 mg/kg, po measured after 2 hrs relative to vehicle-treated control; format: functional
[25] = system: Rattus norvegicus; test: Antipsychotic activity in Sprague-Dawley rat conditioned avoidance response model assessed as avoidance of shock at 10 mg/kg, po measured after 2 hrs relative to vehicle-treated control; format: functional
[26] = system: Rattus norvegicus; test: Antipsychotic activity in po dosed Sprague-Dawley rat conditioned avoidance response model assessed as avoidance of shock measured after 2 hrs relative to vehicle-treated control; format: functional
[27] = system: Rattus norvegicus; test: Antipsychotic activity in Sprague-Dawley rat prepulse inhibition deficit model assessed as reversal of MK-801-induced effect at 3 mg/kg, po administered 110 mins prior to MK-801 challenge relative to vehicle-treated control; format: functional; set-up: scale not given: the % may be the effect or the level left
[28] = Oral bioavailability in Swiss albino mouse at 10 mg/kg […]; format: ADME, organism-based; conditions: in vivo

T1 sequence (Q9Y233 whole entry): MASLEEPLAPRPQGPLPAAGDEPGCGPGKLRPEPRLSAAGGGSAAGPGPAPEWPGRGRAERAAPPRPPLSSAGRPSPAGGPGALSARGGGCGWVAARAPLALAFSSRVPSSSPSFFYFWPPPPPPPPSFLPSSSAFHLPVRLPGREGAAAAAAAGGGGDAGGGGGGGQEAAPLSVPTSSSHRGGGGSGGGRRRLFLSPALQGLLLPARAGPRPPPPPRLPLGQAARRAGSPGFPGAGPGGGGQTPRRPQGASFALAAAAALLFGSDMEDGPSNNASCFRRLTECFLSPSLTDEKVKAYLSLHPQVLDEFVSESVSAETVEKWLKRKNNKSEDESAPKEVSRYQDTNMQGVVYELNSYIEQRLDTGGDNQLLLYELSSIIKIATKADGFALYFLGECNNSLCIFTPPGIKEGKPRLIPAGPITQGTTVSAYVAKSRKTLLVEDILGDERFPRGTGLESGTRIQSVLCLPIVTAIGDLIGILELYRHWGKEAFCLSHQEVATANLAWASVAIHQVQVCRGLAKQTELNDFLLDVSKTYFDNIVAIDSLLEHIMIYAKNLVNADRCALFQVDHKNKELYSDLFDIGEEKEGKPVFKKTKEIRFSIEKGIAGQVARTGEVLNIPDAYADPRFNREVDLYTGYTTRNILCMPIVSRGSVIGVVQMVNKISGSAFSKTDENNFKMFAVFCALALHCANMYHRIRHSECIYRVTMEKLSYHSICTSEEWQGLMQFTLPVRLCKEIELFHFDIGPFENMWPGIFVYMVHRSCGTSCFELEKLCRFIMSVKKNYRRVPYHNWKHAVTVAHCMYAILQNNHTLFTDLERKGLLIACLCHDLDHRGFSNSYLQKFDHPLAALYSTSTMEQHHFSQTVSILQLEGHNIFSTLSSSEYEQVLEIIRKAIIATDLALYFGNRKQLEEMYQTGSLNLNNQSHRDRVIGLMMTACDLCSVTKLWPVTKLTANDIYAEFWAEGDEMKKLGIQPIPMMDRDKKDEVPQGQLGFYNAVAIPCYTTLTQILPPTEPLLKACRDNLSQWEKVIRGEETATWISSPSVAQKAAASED
cGMP-inhibited 3',5'-cyclic phosphodiesterase 3A (Homo sapiens), sequence (Q14432 whole entry): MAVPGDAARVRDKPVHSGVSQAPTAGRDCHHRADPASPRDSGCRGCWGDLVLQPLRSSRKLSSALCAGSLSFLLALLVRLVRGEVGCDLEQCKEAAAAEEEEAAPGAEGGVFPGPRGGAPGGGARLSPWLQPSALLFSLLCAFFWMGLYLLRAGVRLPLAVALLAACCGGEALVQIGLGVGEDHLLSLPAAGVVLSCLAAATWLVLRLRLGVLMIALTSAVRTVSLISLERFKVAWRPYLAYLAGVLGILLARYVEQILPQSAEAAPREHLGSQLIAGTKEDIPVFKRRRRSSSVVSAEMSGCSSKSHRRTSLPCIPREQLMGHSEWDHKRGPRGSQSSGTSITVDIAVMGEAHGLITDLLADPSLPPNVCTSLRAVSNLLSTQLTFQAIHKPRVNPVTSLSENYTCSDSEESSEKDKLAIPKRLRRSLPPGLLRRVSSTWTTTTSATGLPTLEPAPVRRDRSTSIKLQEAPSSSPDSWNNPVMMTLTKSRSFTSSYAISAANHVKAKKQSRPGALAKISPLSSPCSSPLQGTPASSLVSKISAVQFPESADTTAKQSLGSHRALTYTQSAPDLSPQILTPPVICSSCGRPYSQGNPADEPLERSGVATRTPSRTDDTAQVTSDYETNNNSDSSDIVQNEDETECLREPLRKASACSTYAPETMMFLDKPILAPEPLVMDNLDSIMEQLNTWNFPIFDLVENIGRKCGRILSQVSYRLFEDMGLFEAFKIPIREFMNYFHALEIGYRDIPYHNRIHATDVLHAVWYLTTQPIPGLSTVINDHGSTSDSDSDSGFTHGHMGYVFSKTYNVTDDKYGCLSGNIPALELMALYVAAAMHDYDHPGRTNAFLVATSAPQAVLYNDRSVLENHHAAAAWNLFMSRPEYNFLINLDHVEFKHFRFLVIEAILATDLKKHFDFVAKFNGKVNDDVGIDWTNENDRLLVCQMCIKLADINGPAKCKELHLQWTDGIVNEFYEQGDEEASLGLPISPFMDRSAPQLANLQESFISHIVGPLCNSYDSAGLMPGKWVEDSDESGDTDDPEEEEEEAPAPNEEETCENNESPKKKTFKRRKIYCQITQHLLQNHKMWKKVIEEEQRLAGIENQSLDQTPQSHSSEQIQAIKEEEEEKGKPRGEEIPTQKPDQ
cGMP-dependent 3',5'-cyclic phosphodiesterase (Homo sapiens), sequence (O00408 whole entry): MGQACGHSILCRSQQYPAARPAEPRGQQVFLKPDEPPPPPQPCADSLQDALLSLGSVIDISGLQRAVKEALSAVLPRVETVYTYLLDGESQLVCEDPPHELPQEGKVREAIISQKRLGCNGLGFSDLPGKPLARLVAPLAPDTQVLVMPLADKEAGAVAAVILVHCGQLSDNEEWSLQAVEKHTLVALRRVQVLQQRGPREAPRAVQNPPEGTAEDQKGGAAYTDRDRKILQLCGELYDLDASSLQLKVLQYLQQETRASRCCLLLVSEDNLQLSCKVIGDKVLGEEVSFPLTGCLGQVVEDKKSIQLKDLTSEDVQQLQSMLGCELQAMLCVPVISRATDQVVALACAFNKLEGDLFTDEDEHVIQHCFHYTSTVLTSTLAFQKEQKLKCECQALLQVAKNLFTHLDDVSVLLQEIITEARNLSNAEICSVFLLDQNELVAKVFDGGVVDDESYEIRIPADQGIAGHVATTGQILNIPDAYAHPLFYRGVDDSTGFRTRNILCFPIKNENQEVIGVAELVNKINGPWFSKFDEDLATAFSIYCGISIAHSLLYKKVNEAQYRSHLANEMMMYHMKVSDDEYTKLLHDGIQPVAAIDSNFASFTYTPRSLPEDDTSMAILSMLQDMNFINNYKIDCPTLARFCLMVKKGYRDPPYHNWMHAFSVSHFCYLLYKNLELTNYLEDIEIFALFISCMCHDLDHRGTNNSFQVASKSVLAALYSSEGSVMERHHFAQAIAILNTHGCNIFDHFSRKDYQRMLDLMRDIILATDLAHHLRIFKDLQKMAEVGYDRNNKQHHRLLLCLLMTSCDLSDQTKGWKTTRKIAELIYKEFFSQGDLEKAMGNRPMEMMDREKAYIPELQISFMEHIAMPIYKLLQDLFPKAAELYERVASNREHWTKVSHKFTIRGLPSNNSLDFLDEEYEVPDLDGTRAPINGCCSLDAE
Dual 3',5'-cyclic-AMP and -GMP phosphodiesterase 11A (Homo sapiens), sequence (Q9HCR9 whole entry, looked up): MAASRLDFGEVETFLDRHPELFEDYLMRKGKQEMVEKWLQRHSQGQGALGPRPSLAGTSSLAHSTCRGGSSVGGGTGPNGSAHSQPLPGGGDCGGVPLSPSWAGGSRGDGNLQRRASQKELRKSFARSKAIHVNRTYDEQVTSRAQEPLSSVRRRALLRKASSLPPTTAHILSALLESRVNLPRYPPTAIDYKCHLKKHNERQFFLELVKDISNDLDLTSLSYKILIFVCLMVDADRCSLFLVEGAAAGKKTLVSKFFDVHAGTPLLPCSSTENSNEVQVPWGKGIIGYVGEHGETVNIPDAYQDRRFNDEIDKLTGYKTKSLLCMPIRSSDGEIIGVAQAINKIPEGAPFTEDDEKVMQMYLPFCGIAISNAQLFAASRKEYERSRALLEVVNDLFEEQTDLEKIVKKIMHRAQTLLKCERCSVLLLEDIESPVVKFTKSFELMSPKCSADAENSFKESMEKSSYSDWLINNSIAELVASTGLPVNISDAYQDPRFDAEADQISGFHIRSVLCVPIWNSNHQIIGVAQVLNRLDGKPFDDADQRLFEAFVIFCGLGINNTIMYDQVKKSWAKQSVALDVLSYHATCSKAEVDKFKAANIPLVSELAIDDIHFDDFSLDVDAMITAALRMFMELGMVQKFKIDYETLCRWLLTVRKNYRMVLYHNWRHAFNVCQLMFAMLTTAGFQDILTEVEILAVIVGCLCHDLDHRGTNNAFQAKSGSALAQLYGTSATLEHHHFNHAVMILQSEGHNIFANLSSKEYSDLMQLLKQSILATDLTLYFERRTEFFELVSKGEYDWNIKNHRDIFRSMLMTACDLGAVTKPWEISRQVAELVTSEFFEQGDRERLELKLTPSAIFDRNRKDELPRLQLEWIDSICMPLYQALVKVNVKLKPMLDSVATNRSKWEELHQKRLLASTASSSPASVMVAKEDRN
High affinity 3',5'-cyclic-AMP phosphodiesterase 7A (Homo sapiens), sequence (Q13946 whole entry): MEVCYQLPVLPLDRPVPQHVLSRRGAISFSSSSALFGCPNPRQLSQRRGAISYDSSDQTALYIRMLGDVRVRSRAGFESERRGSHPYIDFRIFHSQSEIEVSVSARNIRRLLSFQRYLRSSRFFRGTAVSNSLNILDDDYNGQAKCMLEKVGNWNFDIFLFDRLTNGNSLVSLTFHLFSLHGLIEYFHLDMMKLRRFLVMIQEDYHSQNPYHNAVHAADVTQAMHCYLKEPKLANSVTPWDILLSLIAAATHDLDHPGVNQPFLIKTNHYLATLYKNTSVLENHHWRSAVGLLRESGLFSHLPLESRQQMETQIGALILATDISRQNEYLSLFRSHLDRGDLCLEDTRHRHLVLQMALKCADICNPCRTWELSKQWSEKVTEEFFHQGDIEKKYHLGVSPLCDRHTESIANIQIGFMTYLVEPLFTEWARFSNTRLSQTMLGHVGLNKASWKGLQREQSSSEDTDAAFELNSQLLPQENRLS

inhibition [1]: 98%
IC50 [2]: 6.3 nM
IC50 [3]: 16.1 nM
inhibition [4]: 42.4%
inhibition [5]: 0%
inhibition [6]: 33.8%
inhibition [7]: 2.5%
inhibition [8]: 4.9%
remaining at 1 h [9]: 65.8%
remaining at 1 h [10]: 70.5%
Cmax [11]: 5490 ng/mL
Tmax [12]: 0.5 h
Cmax [13]: 27600 ng/mL
Tmax [14]: 2 h
AUC(0-t) [15]: 410 µg·h/mL
half-life [16]: 4.4 h
clearance [17]: 68.4 mL/min/kg
bioavailability [28]: 8%
Compound: Cn1cc(-c2ccc(Oc3nccnc3-c3ccncc3)cc2)c2ncccc21
Activity [18]: 27%
Activity [19]: 74%
Activity [20]: 96%
Activity [21]: 99%
Activity [22]: 86%
Activity [23]: 17%
Activity [24]: 64%
Activity [25]: 90%
Activity [26]: Dose-dependent effect
ED50 [26]: 2.08 mg/kg
Activity [27]: 64%
